Experimental data from patent US20260191825A1, “CONTRACEPTIVE COMPOUNDS AND DOSING FOR THE SAME” (YourChoice Therapeutics, Inc., priority 2024, published 2026).
pIC50: −log10 of the molar value.

How the values were obtained:
[1] = Rat GLP single dose study, PK at the NOAEL; conditions: male, in vivo, 1000 mg/kg, single dose 1,000 mg/kg (NOAEL)
male mice = test: Mouse single dose non-GLP study; format: in vivo
[2] = In vitro stability in microsomes (mouse); format: in vitro ADME; conditions: mice, read-out: Half-life (T1/2) in microsomes
Procedure: (§1) Respective half-lives (T1/2) were 9.5 hours (human), 23.1 hours (monkeys), >23.1 hours (mice), >23.1 hours (rats), 19.6 hours (rabbits), and >23.1 hours (dogs).

mice = test: Mating trials with mice; format: in vivo, mouse; conditions: 10 mg/kg/day for 4 weeks
CYP2C8 = CYP2C8 (Homo sapiens, UniProt P10632); test: In vitro CYP inhibition (direct and time-dependent), CYP2C8; format: in vitro ADME
Sequence of CYP2C8 (P10632 whole entry): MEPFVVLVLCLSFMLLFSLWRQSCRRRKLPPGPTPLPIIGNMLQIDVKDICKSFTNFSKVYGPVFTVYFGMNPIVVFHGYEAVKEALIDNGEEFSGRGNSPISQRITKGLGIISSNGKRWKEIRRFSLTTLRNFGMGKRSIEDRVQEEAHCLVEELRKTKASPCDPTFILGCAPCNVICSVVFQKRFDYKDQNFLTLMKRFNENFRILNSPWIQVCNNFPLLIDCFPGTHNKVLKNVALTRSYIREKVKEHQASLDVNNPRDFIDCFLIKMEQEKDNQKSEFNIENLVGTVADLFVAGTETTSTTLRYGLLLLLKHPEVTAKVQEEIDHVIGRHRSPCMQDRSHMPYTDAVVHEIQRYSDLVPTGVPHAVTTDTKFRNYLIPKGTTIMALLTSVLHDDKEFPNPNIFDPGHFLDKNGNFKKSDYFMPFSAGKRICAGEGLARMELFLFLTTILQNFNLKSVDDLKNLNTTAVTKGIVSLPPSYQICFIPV
Text: However, the likelihood of drug interactions is low since healthy participants who meet eligibility criteria will be enrolled in this Phase 1b/2a clinical trial. An allowance for select concomitant medications may be considered for select participants at the discretion of the investigator and/or sponsor if drug profiles are not anticipated to interact with Compound A. Such medications may include, but will not be limited to paracetamol or ibuprofen as assessed by both the PI and the Sponsor. […] Additional precautions to avoid grapefruit, pomegranates, star fruit, or Seville oranges for 7 days prior to admission, and juices and products containing these fruits for the duration of the study will be taken.

[3] = test system: mice, rats, dogs and NHPs; test: Research in nonclinical models (mice, rats, dogs and NHPs); format: in vivo, mouse, rat, dog, NHP
[4] = In vitro stability in microsomes (rabbit); format: in vitro ADME; conditions: rabbits
Procedure: as §1

[5] = In vitro stability in microsomes (rat); format: in vitro ADME; conditions: rats
Procedure: as §1

[6] = Dog GLP 28-day repeat-dose study, PK at the NOAEL; conditions: male, Beagle, in vivo, 5 mg/kg, 5 mg/kg (NOAEL); for AUC(0-t): AUC0-24, dog

For `Cc1ccc(C2=CC(C)(C)Oc3ccc(-c4ccc(-c5ccc(C(=O)O)cc5)[nH]4)cc32)cc1` [Compound A], which AUC(0-t) ([1]; Day 1, mean, read-out: AUC0-24) is on record?
Its AUC(0-t) is 560000 ng·h/mL.

What about the Tmax ([1]; Day 1, median) of the same molecule?
Its Tmax is 48 h.

And the half-life ([1]; Day 1, median, calculated from only 2 animals)?
Its half-life is 16.9 h.

And the Cmax ([1]; Day 1, n = 20, mean)?
The Cmax was 45100 ng/mL.

And the “Tolerated single dose (highest dose tested)” value (male mice; male mice, non-GLP study)?
Its value is 1,000 mg/kg.

What about the “HED of tolerated single dose” value (male mice; mice, 1,000 mg/kg) of the same molecule?
The value was 81.3 mg/kg.

And the half-life [2]?
Its half-life is > 23.1 h.

And the “Complete recovery of fertility after cessation of dosing” value (mice)?
Its value is 6-10 weeks.

What about the “Infertility (based on the number of viable embryos)” value (mice) of the same molecule?
Its value is 99%.

What about the pIC50 (CYP2C8; CYP2C8) of the same molecule?
The pIC50 was 5.08.

What about the “Time-dependent inhibition (TDI)” value (CYP2C8; CYP2C8, 0.3 to 100 μM) of the same molecule?
Its value is “no TDI potential”.

And the Testosterone levels ([3]; mice, rats, dogs and NHPs)?
The Testosterone levels was “does not alter testosterone levels”.

What about the Virility ([3]; mice, rats, dogs and NHPs) of the same molecule?
The Virility was “does not affect virility”.

What about the “Repeat dosing after which impairment of fertility / reduction of sperm counts was shown” value ([3]; nonclinical models) of the same molecule?
The value was 3-4 weeks.

What about the half-life ([4]; rabbit, read-out: Half-life (T1/2) in microsomes (converted)) of the same molecule?
The half-life was 19.6 h.

What about the Compound remaining intact ([4]; 90 minutes) of the same molecule?
Its Compound remaining intact is 99%.

And the half-life ([5]; rat, read-out: Half-life (T1/2) in microsomes)?
Its half-life is > 23.1 h.

What about the Compound remaining intact ([5]; 90 minutes) of the same molecule?
The Compound remaining intact was 113%.

And the AUC(0-t) ([6]; Day 1, mean)?
Its AUC(0-t) is 43800 ng·h/mL.

What about the AUC(0-t) ([6]; Day 28, mean) of the same molecule?
Its AUC(0-t) is 80800 ng·h/mL.

What about the Cmax ([6]; Day 1, n = 9, mean) of the same molecule?
Its Cmax is 3410 ng/mL.

What about the Cmax ([6]; Day 28, mean) of the same molecule?
Its Cmax is 4800 ng/mL.

And the half-life ([6]; T1/2, dog, Day 1, median)?
Its half-life is 13.9 h.

What about the Tmax ([6]; Tmax, Day 28, median) of the same molecule?
Its Tmax is 2 h.
